Earlier results, collected in patent publication US20060069157A1, “Method of ameliorating or abrogating the effects of a neurodegenerative disorder, such as Huntington's disease, by sodium butyrate chemotherapy” (U.S. DEPARTMENT OF VETERANS AFFAIRS, priority 2004, published 2006).

Legend:
Drosophila model of HD = Drosophila model of HD (Steffan 2001); cited from earlier work
transgenic HD mice = conditions: cyclodextrin as a carrier; transgenic HD mice (Hockly et al., 2003); cited from earlier work

**Q.** For `O=C(CCCCCCC(=O)Nc1ccccc1)NO` [SAHA, suberoylanilide hydroxamic acid], which “photoreceptor neuron degeneration and lethality” value (Drosophila model of HD) is on record?
**A.** slow photoreceptor neuron degeneration and ameliorate lethality

**Q.** What about the histone levels (transgenic HD mice) of the same compound?
**A.** increase histone levels

**Q.** And the motor performance (transgenic HD mice)?
**A.** improve motor performance
